Active and inactive are the calls of the source. The calls are words filed in the database; no cut-off is given here.
Legend:
SNB-19 = test: Growth inhibition of human SNB19 cells at 10 uM after 48 hrs; format: functional
[1] = (§1) Growth inhibition of human UO31 cells at 10 uM after 48 hrs; format: functional; details: UO-31, 48 h, read-out: GI
Candida albicans = test: Antimicrobial activity against Candida albicans assessed as inhibition zone at 200 ug/disk after 24 hrs by disc-diffusion method; format: functional; details: read-out: IZ
Pseudomonas aeruginosa = test: Antimicrobial activity against Pseudomonas aeruginosa assessed as inhibition zone at 200 ug/disk after 24 hrs by disc-diffusion method; format: functional; details: read-out: IZ
SK-MEL-5 = test: Growth inhibition of human SK-MEL-5 cells at 10 uM after 48 hrs; format: functional
A498 = test: Growth inhibition of human A498 cells at 10 uM after 48 hrs; format: functional
U-251 = test: Growth inhibition of human U251 cells at 10 uM after 48 hrs; format: functional
[2] = (§2) Growth inhibition of human SF295 cells at 10 uM after 48 hrs; format: functional; details: SF-295, 48 h, read-out: GI
[3] = (§3) Growth inhibition of human HCT116 cells at 10 uM after 48 hrs; format: functional; details: HCT-116, 48 h, read-out: GI
[4] = Growth inhibition of human LOXIMVI cells at 10 uM after 48 hrs; format: functional; details: LOX IMVI, read-out: GI
786-0 = test: Growth inhibition of human 786-0 cells at 10 uM after 48 hrs; format: functional
[5] = (§4) Growth inhibition of human HOP92 cells at 10 uM after 48 hrs; format: functional; details: HOP-92, 48 h, read-out: GI
[6] = (§5) Growth inhibition of human RPMI8226 cells at 10 uM after 48 hrs; format: functional; details: RPMI-8226, 48 h, read-out: GI
A549 = test: Growth inhibition of human A549 cells at 10 uM after 48 hrs; format: functional
Staphylococcus aureus [7] = test: Antimicrobial activity against Staphylococcus aureus assessed as inhibition zone at 200 ug/disk after 24 hrs by disc-diffusion method; format: functional; details: read-out: IZ
CAKI-1 = test: Growth inhibition of human CAKI-1 cells at 10 uM after 48 hrs; format: functional
[8] = (§6) Growth inhibition of human OVCAR4 cells at 10 uM after 48 hrs; format: functional; details: OVCAR-4, 48 h, read-out: GI
SNB-75 = test: Growth inhibition of human SNB75 cells at 10 uM after 48 hrs; format: functional; details: SNB-75, 48 h, read-out: GI
[9] = (§7) Growth inhibition of human HCT15 cells at 10 uM after 48 hrs; format: functional; details: HCT-15, 48 h, read-out: GI
[10] = Growth inhibition of human NCI-ADR-RES cells at 10 uM after 48 hrs; format: functional; details: read-out: GI
[11] = Growth inhibition of human BT549 cells at 10 uM after 48 hrs; format: functional; details: BT-549, 48 h, read-out: GI
[12] = Growth inhibition of human OVCAR5 cells at 10 uM after 48 hrs; format: functional; details: OVCAR-5, 48 h, read-out: GI
[13] = (§8) Growth inhibition of human RXF393 cells at 10 uM after 48 hrs; format: functional; details: RXF 393, 48 h, read-out: GI
[14] = (§9) Growth inhibition of human PC3 cells at 10 uM after 48 hrs; format: functional; details: PC-3, 48 h, read-out: GI
[15] = (§10) Growth inhibition of human UACC62 cells at 10 uM after 48 hrs; format: functional; details: UACC-62, 48 h, read-out: GI
Bacillus subtilis [16] = test: Antimicrobial activity against Bacillus subtilis assessed as inhibition zone at 200 ug/disk after 24 hrs by disc-diffusion method; format: functional; details: read-out: IZ
[17] = Growth inhibition of human OVCAR8 cells at 10 uM after 48 hrs; format: functional; details: OVCAR-8, 48 h, read-out: GI
K562 = test: Growth inhibition of human K562 cells at 10 uM after 48 hrs; format: functional
Escherichia coli [18] = test: Antimicrobial activity against Escherichia coli assessed as inhibition zone at 200 ug/disk after 24 hrs by disc-diffusion method; format: functional; details: read-out: IZ
MDA-MB-231 = test: Growth inhibition of human MDA-MB-231 cells at 10 uM after 48 hrs; format: functional
KM12 = test: Growth inhibition of human KM12 cells at 10 uM after 48 hrs; format: functional
Dihydrofolate reductase = biological target: T1, Dihydrofolate reductase (Bos taurus, UniProt P00376); test: Inhibition of bovine liver DHFR
T1 sequence (P00376 whole entry): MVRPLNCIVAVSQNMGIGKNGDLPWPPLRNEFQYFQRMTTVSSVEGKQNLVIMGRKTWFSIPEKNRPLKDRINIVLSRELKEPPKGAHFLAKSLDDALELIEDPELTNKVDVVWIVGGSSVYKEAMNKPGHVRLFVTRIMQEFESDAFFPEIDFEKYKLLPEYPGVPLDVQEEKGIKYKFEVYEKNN

SF-268 = test: Growth inhibition of human SF268 cells at 10 uM after 48 hrs; format: functional; details: SF-268, 48 h, read-out: GI
UO-31 = test: as §1; format: functional
HT-29 = test: Growth inhibition of human HT-29 cells at 10 uM after 48 hrs; format: functional
SF-295 = test: as §2; format: functional
HCT-116 = test: as §3; format: functional
CCRF-CEM = test: Growth inhibition of human CCRF-CEM cells at 10 uM after 48 hrs; format: functional
MCF7 = test: Growth inhibition of human MCF7 cells at 10 uM after 48 hrs; format: functional
T47D = test: Growth inhibition of human T47D cells at 10 uM after 48 hrs; format: functional
Bacillus subtilis [19] = test: Antimicrobial activity against Bacillus subtilis assessed as inhibition of visible growth after 24 hrs by disc-diffusion method; format: functional, organism-based
UACC-257 = test: Growth inhibition of human UACC257 cells at 10 uM after 48 hrs; format: functional
HOP-92 = test: as §4; format: functional
RPMI-8226 = test: as §5; format: functional
OVCAR-4 = test: as §6; format: functional
HL-60(TB) = test: Growth inhibition of human HL-60(TB) cells at 10 uM after 48 hrs; format: functional
HOP-62 = test: Growth inhibition of human HOP62 cells at 10 uM after 48 hrs; format: functional
Escherichia coli [20] = test: Antimicrobial activity against Escherichia coli assessed as inhibition of visible growth after 24 hrs by disc-diffusion method; format: functional, organism-based
HCT-15 = test: as §7; format: functional
MOLT-4 = test: Growth inhibition of human MOLT4 cells at 10 uM after 48 hrs; format: functional
NCI-H226 = test: Growth inhibition of human NCI-H226 cells at 10 uM after 48 hrs; format: functional
RXF 393 = test: as §8; format: functional
Malme-3M = test: Growth inhibition of human MALME-3M cells at 10 uM after 48 hrs; format: functional
SR = test: Growth inhibition of human SR cells at 10 uM after 48 hrs; format: functional
PC-3 = test: as §9; format: functional
UACC-62 = test: as §10; format: functional
NCI-H522 = test: Growth inhibition of human NCI-H522 cells at 10 uM after 48 hrs; format: functional
MDA-MB-468 = test: Growth inhibition of human MDA-MB-468 cells at 10 uM after 48 hrs; format: functional
SK-MEL-28 = test: Growth inhibition of human SK-MEL-28 cells at 10 uM after 48 hrs; format: functional, cell-based
Staphylococcus aureus [21] = test: Antimicrobial activity against Staphylococcus aureus assessed as inhibition of visible growth after 24 hrs by disc-diffusion method; format: functional, organism-based
Hs-578T = test: Growth inhibition of human Hs 578T cells at 10 uM after 48 hrs; format: functional
SF-539 = test: Growth inhibition of human SF539 cells at 10 uM after 48 hrs; format: functional
MDA-MB-435 = test: Growth inhibition of human MDA-MB-435 cells at 10 uM after 48 hrs; format: functional

With `COc1ccc(-n2c(Sc3sc(N)nc3C)nc3ccc(C)cc3c2=O)cc1` the inhibition of growth at 10 µM (SNB-19; SNB-19, 48 h, read-out: GI) was 15.5%, the inhibition of growth at 10 µM [1] was 26.2% and the zone of inhibition at 200 µg/disc (Candida albicans) was 8 mm. It also gave a zone of inhibition at 200 µg/disc (Pseudomonas aeruginosa) of 8 mm, an inhibition of growth at 10 µM (SK-MEL-5; SK-MEL-5, 48 h, read-out: GI) of 15.7% and an inhibition of growth at 10 µM (A498; A498, 48 h, read-out: GI) of 24.6%. For the same molecule, the inhibition of growth at 10 µM (U-251; U-251, 48 h, read-out: GI) was 15.7%, the inhibition of growth at 10 µM [2] was 10.6% and the inhibition of growth at 10 µM [3] was 19.1%. It also gave an inhibition of growth at 10 µM [4] of 11%, an inhibition of growth at 10 µM (786-0; 786-0, 48 h, read-out: GI) of 12% and an inhibition of growth at 10 µM [5] of 42.3%. For the same molecule, the inhibition of growth at 10 µM [6] was 16.2%, the inhibition of growth at 10 µM (A549; A549, 48 h, read-out: GI) was 15.6% and the zone of inhibition at 200 µg/disc (Staphylococcus aureus [7]) was 8 mm. It also gave an inhibition of growth at 10 µM (CAKI-1; CAKI-1, 48 h, read-out: GI) of 11.5%, an inhibition of growth at 10 µM [8] of 12.9% and an inhibition of growth at 10 µM (SNB-75) of 11.9%. The inhibition of growth at 10 µM [9] was 25.3%, the inhibition of growth at 10 µM [10] was 11.3% and the inhibition of growth at 10 µM [11] was 20.6%. The inhibition of growth at 10 µM [12] was 17.9%, the inhibition of growth at 10 µM [13] was 28% and the inhibition of growth at 10 µM [14] was 15.9%. For the same molecule, the inhibition of growth at 10 µM [15] was 15.4%, the zone of inhibition at 200 µg/disc (Bacillus subtilis [16]) was 8 mm and the inhibition of growth at 10 µM [17] was 13.4%. It also gave an inhibition of growth at 10 µM (K562; K562, 48 h, read-out: GI) of 13%, a zone of inhibition at 200 µg/disc (Escherichia coli [18]) of 8 mm and an inhibition of growth at 10 µM (MDA-MB-231; MDA-MB-231, 48 h, read-out: GI) of 25%. The inhibition of growth at 10 µM (KM12; KM12, 48 h, read-out: GI) was 19.4%, the IC50 (Dihydrofolate reductase) was 7 µM and the inhibition of growth at 10 µM (SF-268) was 10.6%.

With `Cc1ccc2nc(Sc3nnc(N)s3)n(-c3ccc(Cl)cc3)c(=O)c2c1` the “growth inhibition (GI)” value (SNB-19) was “inactive”, the “growth inhibition (GI)” value (UO-31) was “inactive” and the “growth inhibition (GI)” value (HT-29) was “inactive”. The zone of inhibition at 200 µg/disc (Candida albicans) was 8 mm, the zone of inhibition at 200 µg/disc (Pseudomonas aeruginosa) was 12 mm and the “growth inhibition (GI)” value (SK-MEL-5) was “inactive”. The “growth inhibition (GI)” value (A498) was “inactive”, the “growth inhibition (GI)” value (U-251) was “inactive” and the “growth inhibition (GI)” value (SF-295) was “inactive”. The “growth inhibition (GI)” value (HCT-116) was “inactive”, the “growth inhibition (GI)” value (CCRF-CEM) was “inactive” and the “growth inhibition (GI)” value (786-0) was “inactive”. For the same molecule, the “growth inhibition (GI)” value (MCF7) was “inactive”, the “growth inhibition (GI)” value (T47D) was “inactive” and the Activity (Bacillus subtilis [19]) was “Active”. For the same molecule, the “growth inhibition (GI)” value (UACC-257) was “inactive”, the “growth inhibition (GI)” value (HOP-92) was “inactive” and the “growth inhibition (GI)” value (RPMI-8226) was “inactive”. The “growth inhibition (GI)” value (A549) was “inactive”, the zone of inhibition at 200 µg/disc (Staphylococcus aureus [7]) was 24 mm and the “growth inhibition (GI)” value (CAKI-1) was “inactive”. For the same molecule, the “growth inhibition (GI)” value (OVCAR-4) was “inactive”, the “growth inhibition (GI)” value (HL-60(TB)) was “inactive” and the “growth inhibition (GI)” value (HOP-62) was “inactive”. For the same molecule, the Activity (Escherichia coli [20]) was “Active”, the “growth inhibition (GI)” value (HCT-15) was “inactive” and the “growth inhibition (GI)” value (MOLT-4) was “inactive”. The “growth inhibition (GI)” value (NCI-H226) was “inactive”, the “growth inhibition (GI)” value (RXF 393) was “inactive” and the “growth inhibition (GI)” value (Malme-3M) was “inactive”. For the same molecule, the “growth inhibition (GI)” value (SR) was “inactive”, the “growth inhibition (GI)” value (PC-3) was “inactive” and the “growth inhibition (GI)” value (UACC-62) was “inactive”. For the same molecule, the zone of inhibition at 200 µg/disc (Bacillus subtilis [16]) was 26 mm, the “growth inhibition (GI)” value (NCI-H522) was “inactive” and the “growth inhibition (GI)” value (MDA-MB-468) was “inactive”. For the same molecule, the “growth inhibition (GI)” value (SK-MEL-28) was “inactive”, the “growth inhibition (GI)” value (K562) was “inactive” and the zone of inhibition at 200 µg/disc (Escherichia coli [18]) was 18 mm. The “growth inhibition (GI)” value (MDA-MB-231) was “inactive”, the “growth inhibition (GI)” value (KM12) was “inactive” and the IC50 (Dihydrofolate reductase) was 0.7 µM. For the same molecule, the Activity (Staphylococcus aureus [21]) was “Active”, the “growth inhibition (GI)” value (Hs-578T) was “inactive” and the “growth inhibition (GI)” value (SF-539) was “inactive”. For the same molecule, the “growth inhibition (GI)” value (MDA-MB-435) was “inactive”.

— ChEMBL document CHEMBL3352542, “Synthesis, biological evaluation and molecular modeling study of 2-(1,3,4-thiadiazolyl-thio and 4-methyl-thiazolyl-thio)-quinazolin-4-ones as a new class of DHFR inhibitors” (Bioorg Med Chem Lett, 2014)
